Measured values as given in ChEMBL document CHEMBL4000244, “Probing A-form DNA: A fluorescent aminosugar probe and dual recognition by anthraquinone-neomycin conjugates” (Bioorg Med Chem, 2017).

What was measured:
[1] = Binding affinity to 5'-CGCCGGCG-3' DNA hairpin assessed as change in fluorescence intensity at 1 uM after 45 mins by fluorescence quenching analysis relative to control
[2] = Binding affinity to 5'-GGCGCCGC-3' DNA hairpin assessed as change in fluorescence intensity at 1 uM after 45 mins by fluorescence quenching analysis relative to control
[3] = Binding affinity to 5'-CGGCCGGG-3' DNA hairpin assessed as change in fluorescence intensity at 1 uM after 45 mins by fluorescence quenching analysis relative to control
[4] = Binding affinity to 5'-GGGCGCGG-3' DNA hairpin assessed as change in fluorescence intensity at 1 uM after 45 mins by fluorescence quenching analysis relative to control
[5] = Binding affinity to 5'-CGCGGGGG-3' DNA hairpin assessed as change in fluorescence intensity at 1 uM after 45 mins by fluorescence quenching analysis relative to control
[6] = Binding affinity to 5'-GGCGGGCG-3' DNA hairpin assessed as change in fluorescence intensity at 1 uM after 45 mins by fluorescence quenching analysis relative to control

For `NCC1O[C@H](O[C@H]2[C@@H](O)[C@H](O[C@@H]3[C@@H](O)[C@H](N)C[C@H](N)[C@H]3O[C@H]3O[C@H](CN)[C@@H](O)[C@H](O)[C@H]3N)O[C@@H]2CSCCNC(=O)CCSCC(=O)Nc2ccc(-c3c4ccc(=O)cc-4oc4cc(O)ccc34)c(C(=O)O)c2)[C@H](N)[C@@H](O)[C@@H]1O` (stereo partly specified), the Activity [1] was 50.8%, the Activity [2] was 48.4% and the Activity [3] was 41.4%. The Activity [4] was 51.5%, the Activity [5] was 40.6% and the Activity [6] was 48.3%.
